Source: the NIST ThermoML archive (doi:10.1016/j.jct.2015.03.001)
± gives the expanded uncertainty stated by the source.

How the values were obtained:
[1] = relative permittivity at various frequencies (dimensionless); xn = mol fraction of the nth substance listed; conditions: 99 kPa, Liquid, Frequency=2 MHz, Parallel plate capacitor, x1 = 1
[2] = refractive index (Na D-line) (dimensionless); xn = mol fraction of the nth substance listed; conditions: 99 kPa, Liquid, Abbe refractometer, x1 = 1
[3] = relative permittivity at various frequencies (dimensionless); conditions: 99 kPa, Liquid, Frequency=2 MHz, Parallel plate capacitor
[4] = refractive index (Na D-line) (dimensionless); conditions: 298.15 K; 101.33 kPa; Liquid; Abbe refractometer

| SMILES | relative permittivity ([1]; 283.15 K) | relative permittivity ([1]; 298.15 K) | relative permittivity ([1]; 313.15 K) | refractive index ([2]; 283.15 K) | refractive index ([2]; 298.15 K) | refractive index ([2]; 313.15 K) | relative permittivity ([3]; 283.15 K) | relative permittivity ([3]; 298.15 K) | relative permittivity ([3]; 313.15 K) | refractive index [4] |
| --- | --- | --- | --- | --- | --- | --- | --- | --- | --- | --- |
| CCCCCCC [heptane] + CC(C)CCl | 1.943 ± 0.019 | 1.923 ± 0.019 | 1.902 ± 0.019 | 1.3929 ± 0.00031 | 1.3852 ± 0.00031 | 1.37735 ± 0.00031 | – | – | – | – |
| CCCCCCC [heptane] | – | – | – | – | – | – | 1.943 ± 0.019 | 1.923 ± 0.019 | 1.902 ± 0.019 | – |
| CCCCCl [1-chlorobutane] | – | – | – | – | – | – | 7.552 ± 0.076 | 7.157 ± 0.072 | 6.757 ± 0.068 | – |
| CCCCCCC [heptane] + CCCCCl | 1.943 ± 0.019 | 1.923 ± 0.019 | 1.902 ± 0.019 | 1.3929 ± 0.00031 | 1.3852 ± 0.00031 | 1.37735 ± 0.00031 | – | – | – | – |
| CC(C)(C)Cl [2-chloro-2-methylpropane] | – | – | – | – | – | – | 10.429 ± 0.1 | 9.67 ± 0.097 | 8.952 ± 0.09 | – |
| CCCCCC [hexane] + CC(C)(C)Cl | 1.905 ± 0.019 | 1.892 ± 0.019 | 1.873 ± 0.019 | 1.3805 ± 0.00031 | 1.37223 ± 0.00031 | 1.36391 ± 0.00031 | – | – | – | – |
| CC(C)CCl [1-chloro-2-methylpropane] | – | – | – | – | – | – | 7.472 ± 0.075 | 7.074 ± 0.071 | 6.657 ± 0.067 | – |
| CCCCCCC [heptane] + CCC(C)Cl | 1.943 ± 0.019 | 1.923 ± 0.019 | 1.902 ± 0.019 | 1.3929 ± 0.00031 | 1.3852 ± 0.00031 | 1.37735 ± 0.00031 | – | – | – | – |
| CCCCCC [hexane] + CCC(C)Cl | 1.905 ± 0.019 | 1.892 ± 0.019 | 1.873 ± 0.019 | 1.3805 ± 0.00031 | 1.37223 ± 0.00031 | 1.36391 ± 0.00031 | – | – | – | – |
| CCCCCCC [heptane] + CC(C)(C)Cl | 1.943 ± 0.019 | 1.923 ± 0.019 | 1.902 ± 0.019 | 1.3929 ± 0.00031 | 1.3852 ± 0.00031 | 1.37735 ± 0.00031 | – | – | – | – |
| CCC(C)Cl (configuration not stated) [2-chlorobutane] | – | – | – | – | – | – | 9.323 ± 0.093 | 8.652 ± 0.087 | 8.07 ± 0.081 | – |
| CCCCCC [hexane] + CCCCCl | 1.905 ± 0.019 | 1.892 ± 0.019 | 1.873 ± 0.019 | 1.3805 ± 0.00031 | 1.37223 ± 0.00031 | 1.36391 ± 0.00031 | – | – | – | – |
| CCCCCC [hexane] | – | – | – | – | – | – | 1.905 ± 0.019 | 1.892 ± 0.019 | 1.873 ± 0.019 | 1.37223 ± 0.00031 |
| CCCCCC [hexane] + CC(C)CCl | 1.905 ± 0.019 | 1.892 ± 0.019 | 1.873 ± 0.019 | 1.3805 ± 0.00031 | 1.37223 ± 0.00031 | 1.36391 ± 0.00031 | – | – | – | – |
